Molecules are shown by their SMILES.

The compound `CCCc1cc(NC(=O)N2CCN(c3cc(F)cc(F)c3)CC2)c(OC)nc1C` showed a melting point of 121 to 123 °C. Then `CC(C)(O)Cn1cnc2c(N)nc3cc(CCC(=O)N4CCOCC4)ccc3c21`, with 217 to 218 °C. As to `CCN(CC)Cc1cc(C(N)=O)ccc1N`, the melting point lay within 129 to 131 °C.

Turning to `CN(C)C1CCc2[nH]c3cc(OCc4ccccc4)ccc3c2C1` (stereo not drawn), the melting point fell in the range of 237 to 239 °C.

In turn, `CN1CCN(S(=O)(=O)CCCOc2ccc3ncnn3n2)CC1` registered a melting point of 140 to 141 °C. As to `CCC1(C)CCC(N)=CC1=O` (stereo not drawn), the melting point was 99 to 100 °C. Compound `CCNCC(=O)Nc1cc(NS(C)(=O)=O)c(Oc2ccccc2)cc1[N+](=O)[O-]` returned a melting point of 156 to 157 °C. To `CN1C(=O)C(NC(=O)Nc2ccccc2[N+](=O)[O-])N=C(c2ccccc2)c2ccccc21` (stereo not drawn) belongs 260 to 261 °C. For `Cc1ccc2c(=O)c(C(=O)O)cn(N)c2n1`, the melting point is 239 to 240 °C. Turning to `CC(=O)NCC1OCC(Cc2ccc(Cl)cc2)CO1` (stereo not drawn), the melting point was 95 °C. In the case of `CC(C)COC1OC(CO)C(O)C(O)C1(O)N(C(=O)N(CCCl)N=O)C1CCCCC1` (stereo not drawn), the melting point was in the range of 87 to 89 °C. The compound `C=C1c2ccccc2C=Cn2c(OC)nnc21` displayed a melting point of 160 to 161 °C.

Regarding `Cc1ccc2c(c1)CC(=S)N2`, the melting point is 120 to 122 °C. For `Cc1nnc(-c2ccccc2OCC2CO2)o1` (stereo not drawn), the melting point lay within 38 to 40 °C.

The compound `CC(C)(C)c1cccc(C(C)(C)C)c1OP1OP(Oc2c(C(C)(C)C)cccc2C(C)(C)C)OP(Oc2c(C(C)(C)C)cccc2C(C)(C)C)O1` (stereo not drawn) displayed a melting point of 115 to 132 °C. Take `O=C(O)c1ccc(CNS(=O)(=O)c2ccc(Br)cc2)cc1`: the melting point was in the range of 268 to 271 °C.

In the case of `OC(CCN1CC=C(c2ccc(Cl)cc2)CC1)c1ccc(F)cc1` (stereo not drawn), the melting point is 130 to 132 °C.

Compound `CCCc1[nH]c(C(=O)OCC)c(C)c1CCC(=O)OCC` showed a melting point of 61.5 to 63.5 °C. Then `Cc1cccc(C)c1NCCCN1C(=O)c2ccccc2C1=O`, with 97 to 98 °C; and `Fc1cc2cc3n(c2cc1Cl)CCNC3`, with 195 to 197 °C; and `CC(C)(C)C(=O)Oc1ccc2c3c(cnc2c1)CCCC3O[Si](C)(C)C(C)(C)C` (stereo not drawn), with 125 to 126 °C. To `CC1CCCC(C)N1Cc1ccc2cc(NC(=O)c3ccc(-c4ccc(Cl)cc4)cc3)ccc2c1` (stereo not drawn) belongs 220 to 222 °C; to `COc1ccc2c(c1)C(=O)CC21CNC(=O)C1` (stereo not drawn), 179 to 180 °C. With `CC(=NC12CC3CC(CC(C3)C1)C2)NC12CC3CC(CC(C3)C1)C2`, the melting point lay within 255 to 258 °C. Then `CCCC[C@H](NC(=O)[C@H](CC(C)C)NC(=O)c1ccc(C(F)(F)F)cc1F)C(=O)CSCc1ccco1`, with 102 to 106 °C; and `Cc1ccc(CC2CCN(C(=O)C(=O)O)CC2)cc1`, with 133 to 135 °C. As for `O=C(c1ccccc1)N(N=Cc1ccccc1)c1ccccc1F`, the melting point lay in the range of 97 to 99 °C.

`CC(C)C[C@@H](OS(=O)(=O)c1ccc([N+](=O)[O-])cc1)C(=O)O` registered a melting point of 60 to 62 °C. Then `O=C(O)C(O)(c1cccs1)c1cccs1`, with 84 °C; and `CCOC(=O)COc1c(-c2ccccc2)cc(O)cc1-c1ccccc1`, with 91 to 93 °C; and `CCOC(=O)c1nc(N)sc1C(=O)CC`, with 134 to 135 °C. The compound `CCCCCCC#CCC#CCC#CCCCCCCC(=O)O` had a melting point of 57 to 58 °C.

Regarding `Cn1c(=O)[nH]c2cccc(I)c2c1=O`, the melting point is > 300 °C.

`Cc1nc(C)c(Cl)c(NCc2nccc(SCCCCSCCn3c([N+](=O)[O-])cnc3C)c2C)n1`: the melting point lay within 142 to 144 °C. Then `C=CCSc1cc(C(=O)O)cc(N)c1-c1ccccc1`, with 150 °C.

`CCSc1c(C)nn(-c2c(Cl)cc(C(F)(F)F)cc2Cl)c1N` displayed a melting point of 117 °C. On to `O=C(C[C@H](NC(=O)C(F)(F)F)C(=O)O)c1ccc2oc3ccccc3c2c1`, for which the melting point fell in the range of 140 to 144 °C. In turn, `CCn1cc(C(=O)c2sc(NC(=O)c3ccncc3)nc2-c2ccco2)ccc1=O` had a melting point of 295 to 296 °C.

For the compound `CCOC(=O)Cn1c(=O)n(Cc2ccc(Cl)c(Cl)c2)c(=O)c2c(C)c(Br)sc21`, the melting point was 166 to 167 °C. The compound `COC(=O)[C@H](CC(=O)OC(C)(C)C)NC(=O)c1cccc(NC(=O)OCc2ccccc2)c1` returned a melting point of 115 to 116 °C. Compound `Cc1cccc(-c2nc(N)c3ccccc3n2)n1` yielded a melting point of 201 °C. Then `COC(=O)c1ccc(COc2cc(F)ccc2N)c(F)c1`, with 92 to 95 °C; and `O=[N+]([O-])c1ccc(N2CCN(CCO)CC2)cc1`, with 98 to 99 °C; and `Cc1ccccc1Cn1c(=O)on(C(=O)N(c2ccc(Cl)cc2)C(C)C)c1=O`, with 90 to 91 °C. Then `O=C1CCCc2c1c1cccc(F)c1n2Cc1ccc(F)cc1`, with 177 to 178 °C. To `OC1(c2ccc(Cl)c(Cl)c2)c2ccccc2C2=NCCCN21` (stereo not drawn) belongs 267 to 269 °C; to `N#CCCNC(=O)c1cccc(-c2ccc3c(c2)N(c2ccc(Cl)cc2Cl)CC3)c1`, 148 to 154 °C. `COC(=O)[C@H](O)[C@@H](N)c1ccc(F)cc1` yielded a melting point of 105 °C.

In turn, `Cc1ccc(Cc2cnc(NCCCN(c3ccccc3)c3ccccn3)[nH]c2=O)cn1` showed a melting point of 216 to 218 °C.

`CON=C(C#N)c1ccccc1COc1cccc(Cl)c1`: the melting point was in the range of 62 to 63 °C. Then `CC(C)(C)OC(=O)N[C@@H](CC(N)=O)C(N)=O`, with 190 to 192 °C. `Cc1cnc2c(c1)CCCC2=NO` showed a melting point of 188 °C.

Compound `c1ccc(Nc2ncnc3[nH]nc(Nc4ccccc4)c23)cc1` showed a melting point of 263 to 264 °C. In turn, `CC(C)c1nccn1-c1nc(Cl)nc2nc[nH]c12` returned a melting point of 268 °C.

Consider `C(=C\c1nc2ccccc2n1-c1ccccn1)/c1cccs1`, for which the melting point fell in the range of 130 to 131 °C. For `O=c1nc(-c2cccc(Cl)n2)sc2ccccc12`, the melting point is 224 to 225 °C. As for `Cc1cc(CCCCCOc2ccc(-c3ccco3)cc2)on1`, the melting point lay within 86 to 88 °C. Compound `CC(=O)c1ccc(OCCCOc2ccc(C(=O)C(=O)O)cc2)cc1O` gave a melting point of 133 to 135 °C. `CC(=O)CC(=O)OCN1C(=O)c2ccccc2C1=O` registered a melting point of 106 to 109 °C. Regarding `CN1c2ccccc2CCC1c1ccccc1` (stereo not drawn), the melting point is 99 to 101 °C. Then `CC1=C(C2C=CN(C(=O)OCC(Cl)(Cl)Cl)C=C2)SC(C)C(=O)N1` (stereo not drawn), with 140 to 142 °C; and `O=C1c2ccccc2C(=O)c2oc(-c3ccc(F)cc3)nc21`, with > 260 °C. `CN(CCCCOc1ccc(CC2SC(=O)NC2=O)cc1)c1nc2ccccc2o1` (stereo not drawn) displayed a melting point of 112 °C. Then `CC(C)Oc1cc(-n2nc(C(F)F)n(C)c2=O)c(Cl)cc1Cl`, with 95 to 97 °C; and `c1cc(-c2ccc(OCCCN3CCCC3)cc2)ccc1OCCCN1CCCCC1`, with 105 to 108 °C. Then `CCOc1nn(-c2ccc(C(F)(F)F)cn2)cc1CCOc1ccc(CCC(=O)O)c(C)c1`, with 117 to 119 °C; and `Cn1cc(CCNC(=O)OC(C)(C)C)c2cc(S(=O)(=O)c3ccccc3)ccc21`, with 127 to 131 °C. To `O=C1COC(Nc2ccccc2)=C1C(=O)Nc1ccccc1` belongs 182 to 184 °C. Regarding `Cc1ccc2c(c1)C(=O)C(C#N)C2=O` (stereo not drawn), the melting point is 176 to 178 °C. On to `Cc1cc(F)ccc1-c1ccc(S(=O)(=O)N2c3ccccc3CC2C(=O)NCCOc2ccc(C(=O)O)c(F)c2)cc1` (stereo not drawn), for which the melting point lay in the range of 109 to 118 °C. `CCn1c(C)nc2cc(S(=O)(=O)c3cccc4cnccc34)c([N+](=O)[O-])cc21` came in with a melting point of 245 to 250 °C. For `CC(C)=CCCC(C)=CCOc1ccc(C(=O)NCCSc2ccc(C(F)(F)F)cn2)cc1`, the melting point was 96.7 to 97.5 °C. In turn, `O=C1OCCN1c1ccc([N+](=O)[O-])cc1Cl` yielded a melting point of 94 to 96 °C. For `CNC(=O)COc1ccc(C(=O)CN2CCN(c3ccncc3)CC2)cc1`, the melting point lay within 169 to 171 °C. To `O=c1oc(-c2ccccc2)cc(O)c1C(CC1CCCC1)SC1CCCCC1` (stereo not drawn) belongs 157 to 160 °C.

The compound `CN1CCOC(=NO)C1=O` registered a melting point of 199 to 201 °C. Then `CC1c2ccccc2NC(=O)N1CCCl` (stereo not drawn), with 126 °C; and `CCOCCC(=O)OCC(=O)C1(O)CCC2C3CC(C)C4=CC(=O)C=CC4(C)C3C(O)CC21C` (stereo not drawn), with 186 °C; and `COC(=O)CN(NC(N)=O)c1cccc(C)c1`, with 68 to 70 °C. The compound `COc1ccc(Nc2ccnc(Nc3cc(OC)c(OC)c(OC)c3)n2)cc1OC` returned a melting point of 86 °C. Then `Cc1nc2c(N)nc3cccnc3c2n1CC1(O)CCN(C(=O)OC(C)(C)C)CC1`, with 233 to 235 °C. To `CON=C(C)c1c(C)sc(C)c1CS(=O)(=O)C1=NOC(C)(C)C1` belongs 95 to 96 °C; to `Cc1c(SCc2ccco2)ccnc1CSc1ccncc1`, 126 to 128 °C; to `CC1(C)OCC(COc2ccc(Br)cc2C23CC4CC(CC(C4)C2)C3)O1` (stereo not drawn), 91 °C. To `CCOC(=O)c1cc(C(C)=O)c(=O)[nH]c1C(=O)OCC` belongs 101 to 110 °C.

`O=Cc1ccc(OCc2ccccc2)c(F)c1` displayed a melting point of 94 to 95 °C.

`O=C1CCc2ccc(OCCCCBr)cc2N1` registered a melting point of 106 to 109 °C.

On to `CC(=O)CC(=O)Nc1ccc(C)cc1C`, for which the melting point is 89 °C. Then `COC(=O)c1ccc(C(=O)NCc2cccc(O)c2)cc1C`, with 100 to 103 °C; and `CCCCc1nc(Cl)c(C(N)=O)n1Cc1ccc2oc(-c3ccccc3-c3nnn[nH]3)c(Br)c2c1`, with 131 to 133 °C. `C=CCSCCON=C(C(=O)OCC)c1csc(NC=O)n1` yielded a melting point of 62 to 64 °C. Compound `CCOC(=O)c1cn2c3c(cc(F)cc3c1=O)C1CCCCC12` (stereo not drawn) had a melting point of 97 to 98 °C. For the compound `COc1cc2c(Oc3ccc4[nH]c(C)cc4c3)ncnc2cc1OCC1CCN(C)C(=O)C1` (stereo not drawn), the melting point was in the range of 250 to 251 °C.

(Values after a melting point compilation (Tetko et al.; mined from patent text by program, amines drawn as free bases though some values may be those of a salt).)
